Source: publication PMC8703611, “Cyclic Peptides from the Soft Coral-Derived Fungus Aspergillus sclerotiorum SCSIO 41031” (Marine Drugs, 2021)

Columns and labels:
acetylcholinesterase = acetylcholinesterase (Homo sapiens, UniProt P22303); test: AChE inhibition, modified Ellman's method; format: biochemical
Experimental: The AChE inhibition activity was measured based on the modified Ellman’s method. Tacrine was used as positive drug. The inhibition rates of AChE were calculated using Origin 8.0 software.

[1] = Cytotoxicity against HONE1-EBV, CCK-8 method; format: cell-based, human; conditions: CCK-8, OD at 450 nm, 72 h, average values of three parallel experiments
Experimental: (§1) The THP-1, HONE1, and HONE1-EBV cell lines were obtained from Sun Yat-sen University Cancer Center. The cytotoxic activity was determined by the CCK-8 (Dojindo) method. Briefly, THP-1, HONE1, and HONE1-EBV cells were cultured in DMEM media supplemented with 10% […] (FBS), respectively. The cells were seeded at a density of 400 to 800 cells/well in 384-well plates and then incubated with the compounds in a gradient concentration (50.0, 10.0, 2.0, 0.4, and 0.08 μM) or with a solvent control for 72 h, followed by the addition of CCK-8 reagent. The OD value of each well was measured at 450 nm using a SpectraMax M5 Microplate Reader (Molecular Devices). Sorafenib functioned as the positive control. Dose–response curves were plotted to determine IC50 based upon the average values of three parallel experiments using Prism 5.0.

[2] = Cytotoxicity against HONE1, CCK-8 method; format: cell-based, human; conditions: CCK-8, OD at 450 nm, 72 h, average values of three parallel experiments
Experimental: as §1

Sequence of acetylcholinesterase (P22303 32-614): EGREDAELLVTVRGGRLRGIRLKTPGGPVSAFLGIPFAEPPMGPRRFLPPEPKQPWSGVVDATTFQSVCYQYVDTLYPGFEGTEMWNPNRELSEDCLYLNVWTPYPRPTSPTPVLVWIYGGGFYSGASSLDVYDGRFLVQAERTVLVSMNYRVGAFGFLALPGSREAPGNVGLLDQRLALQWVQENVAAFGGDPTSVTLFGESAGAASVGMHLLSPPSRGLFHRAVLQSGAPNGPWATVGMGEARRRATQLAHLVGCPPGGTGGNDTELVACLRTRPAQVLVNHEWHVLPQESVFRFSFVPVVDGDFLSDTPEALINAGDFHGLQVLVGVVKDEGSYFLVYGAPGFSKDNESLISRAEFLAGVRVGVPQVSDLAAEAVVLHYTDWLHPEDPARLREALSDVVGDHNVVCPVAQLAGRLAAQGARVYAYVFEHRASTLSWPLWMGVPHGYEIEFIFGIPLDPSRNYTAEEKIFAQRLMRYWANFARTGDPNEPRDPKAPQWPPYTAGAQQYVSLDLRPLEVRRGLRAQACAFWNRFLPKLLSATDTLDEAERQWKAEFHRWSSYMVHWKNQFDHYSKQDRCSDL

CCCCCCCC[C@H](C)[C@@H]1CC(=O)NCC(=O)N[C@@H](C(C)C)C(=O)N[C@H](CC(C)C)C(=O)N[C@@H](C)C(=O)N[C@@H](C(C)C)C(=O)O1 [Compound 4, Scopularide I]
IC50 (acetylcholinesterase): 15.6 µM | IC50 [1]: 10.1 µM | IC50 [2]: 13 µM
